Target: Beta-2 adrenergic receptor (Homo sapiens, UniProt P07550)
Experiment: Displacement of [3H]-CGP-12177 from human beta2-adrenergic receptor

Sequence of Beta-2 adrenergic receptor (P07550 whole entry): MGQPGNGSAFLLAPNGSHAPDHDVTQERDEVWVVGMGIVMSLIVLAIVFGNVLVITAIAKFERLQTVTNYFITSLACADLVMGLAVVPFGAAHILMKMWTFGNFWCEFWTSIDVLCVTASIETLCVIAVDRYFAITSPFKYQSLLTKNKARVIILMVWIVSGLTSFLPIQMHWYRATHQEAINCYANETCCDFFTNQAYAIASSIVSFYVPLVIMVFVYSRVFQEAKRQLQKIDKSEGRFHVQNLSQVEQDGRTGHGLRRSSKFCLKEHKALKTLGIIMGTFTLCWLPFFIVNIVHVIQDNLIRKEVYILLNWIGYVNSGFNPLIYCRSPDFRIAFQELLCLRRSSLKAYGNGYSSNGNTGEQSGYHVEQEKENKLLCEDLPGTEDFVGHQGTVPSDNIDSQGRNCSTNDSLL

Compound COc1ccc(CCNC[C@H](O)c2ccccc2)cc1OC has an IC50 of 8400 nM.
Work on COc1cc2c3c(c1OC)-c1ccccc1[C@@H](O)[C@]3(C)NCC2 (relative stereo) yielded an IC50 of 20 nM.
Compound COc1cc2c3c(c1OC)-c1ccccc1[C@@H](O)[C@H]3NCC2 has an IC50 of 210 nM.
COc1cc2c(cc1OC)[C@H]([C@H](O)c1ccccc1Cl)NCC2 was tested, and the IC50 was greater than 10000 nM.

— ChEMBL document CHEMBL4257493, “Discovery of 7-hydroxyaporphines as conformationally restricted ligands for beta-1 and beta-2 adrenergic receptors” (Medchemcomm, 2018)
